Results reported in US12528802B2, “Heterocyclic compound” (Takeda Pharmaceutical Company Limited, priority 2019, dated 2026).

target: T1, glucosylceramide synthase (Homo sapiens, UniProt Q16739); test: Glucosylceramide synthase (GCS) enzyme assay, microsome fraction, C8 glucosylceramide quantified by Rapidfire MS/MS; type: biochemical; details: test compound 10 μM; 1.7 μM UDP-glucose, 3 μM C8 ceramide; room temperature 60 min
T1 construct: made in house; host or cells: Expi293F cells (transient expression, pcDNA3.3-TOPO vector); microsome fraction used as enzyme source
T1 sequence (Q16739 1-394): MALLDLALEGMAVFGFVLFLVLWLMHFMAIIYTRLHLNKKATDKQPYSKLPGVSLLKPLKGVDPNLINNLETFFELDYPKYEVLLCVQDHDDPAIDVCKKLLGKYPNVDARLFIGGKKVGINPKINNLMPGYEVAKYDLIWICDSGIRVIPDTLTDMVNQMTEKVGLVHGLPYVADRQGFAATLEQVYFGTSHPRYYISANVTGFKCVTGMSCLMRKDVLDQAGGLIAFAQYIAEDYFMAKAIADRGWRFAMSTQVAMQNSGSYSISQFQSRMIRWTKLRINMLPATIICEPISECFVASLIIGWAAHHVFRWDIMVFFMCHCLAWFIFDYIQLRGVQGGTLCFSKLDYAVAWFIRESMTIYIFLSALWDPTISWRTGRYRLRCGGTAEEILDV
Procedure, shortened: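 Test compound, 10 μM final, was run against human GCS from transfected Expi293F microsome fractions, using substrate solution of 6 μM C8 ceramide (in DOPC liposomes) plus 3.4 μM UDP-glucose, pH 7.5 Tris buffer, 60 min, room temperature. Product C8 glucosylceramide measured by Rapidfire MS/MS against an internal standard, % inhibition referenced to no-enzyme and DMSO wells.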

Row | GCS enzyme inhibitory rate at 10 μM (%) (% of control) | Structure (SMILES)
1 | 98% | O=C1c2ccnc(-c3ccccc3OCC(F)(F)F)c2CN1c1ccc(C(O)C(F)(F)F)nc1 (single isomer, unassigned) [Example 277, (R or S)-4-[2-(2,2,2-trifluoroethoxy)phenyl]-2-[6-(2,2,2-trifluoro-1-hydroxyethyl)pyridin-3-yl]-2,3-dihydro-1H-pyrrolo[3,4-c]pyridin-1-one]

same assay, conditions: test compound 10 μM; 1.7 μM UDP-glucose, 3 μM C8 ceramide; room temperature 60 min; read-out: GCS enzyme inhibitory rate at 10 μM (%) (% of control)

Row | inhibition at 10 µM | Structure (SMILES)
2 | 88% | COc1cnccc1-c1nccc2c1CN(c1ccc(F)cc1)C2 [Example 170, 2-(4-fluorophenyl)-4-(3-methoxypyridin-4-yl)-2,3-dihydro-1H-pyrrolo[3,4-c]pyridine]
3 | 99% | N#CC1(c2ccc(N3Cc4c(ccnc4-c4ccc(F)cc4OCC(F)(F)F)C3=O)cc2)CCOCC1 [Example 218, 4-(4-{4-[4-fluoro-2-(2,2,2-trifluoroethoxy)phenyl]-1-oxo-1,3-dihydro-2H-pyrrolo[3,4-c]pyridin-2-yl}phenyl)oxan-4-carbonitrile]
4 | 61% | COc1cc(C(=O)N2CCC2)ccc1-c1nccc2c1CN(c1ccc(F)cc1)C2=O [Example 120, 4-[4-(azetidine-1-carbonyl)-2-methoxyphenyl]-2-(4-fluorophenyl)-2,3-dihydro-1H-pyrrolo[3,4-c]pyridin-1-one]
5 | 99% | O=C1c2ccnc(-c3ccc(F)cc3OCC(F)(F)F)c2CN1c1ccc(C(O)C(F)F)cc1 (racemic) [Example 250, rac-2-[4-(2,2-difluoro-1-hydroxyethyl)phenyl]-4-[4-fluoro-2-(2,2,2-trifluoroethoxy)phenyl]-2,3-dihydro-1H-pyrrolo[3,4-c]pyridin-1-one]
6 | 89% | COc1ccc(N2Cc3c(ccnc3-c3ccccc3OC)C2=O)cc1 [Example 24, 4-(2-methoxyphenyl)-2-(4-methoxyphenyl)-2,3-dihydro-1H-pyrrolo[3,4-c]pyridin-1-one]
7 | 99% | COc1ccccc1-c1nccc2c1CN(c1ccc(C)cc1)C2=O [Example 23, 4-(2-methoxyphenyl)-2-(4-methylphenyl)-2,3-dihydro-1H-pyrrolo[3,4-c]pyridin-1-one]
8 | 99% | CC(C)(O)C(F)(F)c1ccc(N2Cc3c(ccnc3-c3ccccc3OCC(F)(F)F)C2=O)cc1 [Example 340, 2-[4-(1,1-difluoro-2-hydroxy-2-methylpropyl)phenyl]-4-[2-(2,2,2-trifluoroethoxy)phenyl]-2,3-dihydro-1H-pyrrolo[3,4-c]pyridin-1-one]
9 | 100% | O=C1c2ccnc(-c3ccccc3OCC(F)(F)F)c2CN1c1ccc(C2(O)CC(OCc3ccccc3)C2)cc1 (stereo not drawn) [Example 227, (cis or trans)-2-{4-[3-(benzyloxy)-1-hydroxycyclobutyl]phenyl}-4-[2-(2,2,2-trifluoroethoxy)phenyl]-2,3-dihydro-1H-pyrrolo[3,4-c]pyridin-1-one]
10 | 97% | O=C1c2ccnc(-c3ccc(F)cc3OCC(F)(F)F)c2CN1c1ccc(C2(O)CCOC2)cn1 (racemic) [Example 256, rac-4-[4-fluoro-2-(2,2,2-trifluoroethoxy)phenyl]-2-[5-(3-hydroxyoxolan-3-yl)pyridin-2-yl]-2,3-dihydro-1H-pyrrolo[3,4-c]pyridin-1-one]
11 | 98% | O=C1c2ccnc(-c3ccccc3OCC3CC(F)(F)C3)c2CN1c1ccc(F)cc1 [Example 103, 4-{2-[(3,3-difluorocyclobutyl)methoxy]phenyl}-2-(4-fluorophenyl)-2,3-dihydro-1H-pyrrolo[3,4-c]pyridin-1-one]
12 | 96% | O=C1c2ccnc(-c3ccc(F)cc3OCC(F)(F)F)c2CN1c1ccc(OC(F)(F)F)cn1 [Example 58, 4-[4-fluoro-2-(2,2,2-trifluoroethoxy)phenyl]-2-[5-(trifluoromethoxy)pyridin-2-yl]-2,3-dihydro-1H-pyrrolo[3,4-c]pyridin-1-one]
13 | 98% | O=C1c2ccnc(-c3ccc(F)cc3OCC(F)(F)F)c2CN1c1ccc(N2CCOCC2)nc1 [Example 177, 4-[4-fluoro-2-(2,2,2-trifluoroethoxy)phenyl]-2-[6-(morpholin-4-yl)pyridin-3-yl]-2,3-dihydro-1H-pyrrolo[3,4-c]pyridin-1-one]
14 | 99% | CC(C)Cn1cc(N2Cc3c(ccnc3-c3ccc(F)cc3OCC(F)(F)F)C2=O)cn1 [Example 96, 4-[4-fluoro-2-(2,2,2-trifluoroethoxy)phenyl]-2-[1-(2-methylpropyl)-1H-pyrazol-4-yl]-2,3-dihydro-1H-pyrrolo[3,4-c]pyridin-1-one]
15 | 73% | O=C1c2ccnc(-c3ccc(F)cc3OCC(F)F)c2CN1c1ccc(F)cc1 [Example 16, 4-[2-(2,2-difluoroethoxy)-4-fluorophenyl]-2-(4-fluorophenyl)-2,3-dihydro-1H-pyrrolo[3,4-c]pyridin-1-one]
16 | 96% | CC(C)(O)c1ccc(N2Cc3c(ccnc3-c3ccncc3OCC(F)(F)F)C2=O)cc1F [Example 272, 2-[3-fluoro-4-(2-hydroxypropan-2-yl)phenyl]-4-[3-(2,2,2-trifluoroethoxy)pyridin-4-yl]-2,3-dihydro-1H-pyrrolo[3,4-c]pyridin-1-one]
17 | 95% | O=C1c2ccnc(-c3ccc(F)cc3OCC(F)(F)F)c2CN1c1cnn(CC2(F)COC2)c1 [Example 202, 2-{1-[(3-fluorooxetan-3-yl)methyl]-1H-pyrazol-4-yl}-4-[4-fluoro-2-(2,2,2-trifluoroethoxy)phenyl]-2,3-dihydro-1H-pyrrolo[3,4-c]pyridin-1-one]
18 | 64% | CS(=O)(=O)c1ccc(N2Cc3c(ccnc3-c3ccc(F)cc3OCC(F)(F)F)C2=O)nc1 [Example 108, 4-[4-fluoro-2-(2,2,2-trifluoroethoxy)phenyl]-2-[5-(methanesulfonyl)pyridin-2-yl]-2,3-dihydro-1H-pyrrolo[3,4-c]pyridin-1-one]
19 | 94% | O=C(c1ccc(-c2nccc3c2CN(c2ccc(OC(F)F)nc2)C3=O)c(OC(F)F)c1)N1CCC1 [Example 125, 4-[4-(azetidine-1-carbonyl)-2-(difluoromethoxy)phenyl]-2-[6-(difluoromethoxy)pyridin-3-yl]-2,3-dihydro-1H-pyrrolo[3,4-c]pyridin-1-one]
20 | 100% | O=C1c2ccnc(-c3ccc(F)cc3OCC(F)(F)F)c2CN1c1ccc(C(O)(C(F)F)C(F)F)cc1 [Example 245, 4-[4-fluoro-2-(2,2,2-trifluoroethoxy)phenyl]-2-[4-(1,1,3,3-tetrafluoro-2-hydroxypropan-2-yl)phenyl]-2,3-dihydro-1H-pyrrolo[3,4-c]pyridin-1-one]
21 | 99% | CC(O)c1ccc(N2Cc3c(ccnc3-c3ccccc3OCC(F)(F)F)C2=O)cc1 (racemic) [Example 280, rac-2-[4-(1-hydroxyethyl)phenyl]-4-[2-(2,2,2-trifluoroethoxy)phenyl]-2,3-dihydro-1H-pyrrolo [3,4-c]pyridin-1-one]
22 | 99% | CC(C)(O)c1ccc(N2Cc3c(ccnc3-c3ccc(F)cc3OCC(F)(F)F)C2=O)cc1F [Example 212, 2-[3-fluoro-4-(2-hydroxypropan-2-yl)phenyl]-4-[4-fluoro-2-(2,2,2-trifluoroethoxy)phenyl]-2,3-dihydro-1H-pyrrolo[3,4-c]pyridin-1-one]
23 | 100% | Cn1cc2c(c(-c3ccccc3OCC(F)(F)F)c1=O)CN(c1ccc(OC(F)F)cc1)C2=O [Example 236, 2-[4-(difluoromethoxy)phenyl]-5-methyl-7-[2-(2,2,2-trifluoroethoxy)phenyl]-1H-pyrrolo[3,4-c]pyridine-3,6(2H,5H)-dione]
24 | 91% | N#CCc1ccc(N2Cc3c(ccnc3-c3ccc(F)cc3OCC(F)(F)F)C2=O)cc1 [Example 237, (4-{4-[4-fluoro-2-(2,2,2-trifluoroethoxy)phenyl]-1-oxo-1,3-dihydro-2H-pyrrolo[3,4-c]pyridin-2-yl}phenyl)acetonitrile]
25 | 99% | CC(O)c1ccc(N2Cc3c(ccnc3-c3ccc(F)cc3OCC(F)(F)F)C2=O)cc1F (racemic) [Example 292, rac-2-[3-fluoro-4-(1-hydroxyethyl)phenyl]-4-[4-fluoro-2-(2,2,2-trifluoroethoxy)phenyl]-2,3-dihydro-1H-pyrrolo [3,4-c]pyridin-1-one]
26 | 94% | O=C1c2ccnc(-c3ccc(F)cc3OCC(F)(F)F)c2CN1c1cnn(CC2(F)CC2)c1 [Example 213, 2-{1-[(1-fluorocyclopropyl)methyl]-1H-pyrazol-4-yl}-4-[4-fluoro-2-(2,2,2-trifluoroethoxy)phenyl]-2,3-dihydro-1H-pyrrolo[3,4-c]pyridin-1-one]
27 | 100% | O=C1c2ccnc(-c3ccccc3OCC(F)(F)F)c2CN1c1ccc(C(O)C2CC2)cc1 (racemic) [Example 329, rac-2-{4-[cyclopropyl(hydroxy)methyl]phenyl}-4-[2-(2,2,2-trifluoroethoxy)phenyl]-2,3-dihydro-1H-pyrrolo[3,4-c]pyridin-1-one]

Row | Structure (SMILES) | inhibition at 10 µM
28 | CC(C)(C)[Si](C)(C)OC1(c2ccc(N3Cc4c(ccnc4-c4ccccc4OCC(F)(F)F)C3=O)cc2)CC1 [Example 221, 2-[4-(1-{[tert-butyl(dimethyl)silyl]oxy}cyclopropyl)phenyl]-4-[2-(2,2,2-trifluoroethoxy)phenyl]-2,3-dihydro-1H-pyrrolo[3,4-c]pyridin-1-one] | 99%
